Data published in patent US11230717B2, “Plants having increased tolerance to herbicides” (BASF SE, priority 2013, dated 2022).

Assays:
Picrophilus HPPD = assay: HPPD activity assay, in vitro characterization; type: biochemical, Picrophilus torridus; conditions: normalized to Hordeum SEQ ID NO:2
Experimental: (§1) HPPD produces homogentisic acid and CO2 from 4-hydroxyphenylpyruvate (4-HPP) and O2. The activity assay for HPPD is based on the analysis of homogentisic acid by reversed phase HPLC.
(§2) The assay mixture can contain 150 mM potassium phosphate buffer pH 7.0, 50 mM L-ascorbic acid, 100 μM Catalase (Sigma-Aldrich), 1 μM FeSO4 and 0.2 units of purified HPPD enzyme in a total volume of 505 μl. 1 unit is defined as the amount of enzyme that is required to produce 1 nmol of HGA per minute at 20° C.
(§3) After a preincubation of 30 min the reaction is started by adding 4-HPP to a final concentration of 0.05 mM. The reaction is allowed to proceed for 45 min at room temperature. The reaction is stopped by the addition of 50 μl of 4.5 M phosphoric acid. The sample is filtered using a […] pore size PVDF filtration device.
(§4) 5 μl of the cleared sample is analyzed on an UPLC HSS T3 column (particle size 1.8 μm, dimensions 2,1×50 mm; Waters) by isocratic elution using 90% 20 mM NaH2PO4 pH 2.2, 10% methanol (v/v).
(§5) HGA is detected electrochemically at 750 mV (mode: DC; polarity: positive) and quantified by integrating peak areas (Empower software; Waters).
(§6) Inhibitors are dissolved in DMSO (dimethylsulfoxide) to a concentration of 0.5 mM. From this stock solution serial five-fold dilutions are prepared in DMSO, which are used in the assay. […] IC50 values are calculated using non-linear regression. […]

Avena HPPD = assay: HPPD activity assay, in vitro characterization; type: biochemical, Avena sativa; conditions: normalized to Hordeum SEQ ID NO:2
Experimental: as §1, §2, §3, §4, §5, §6

[1] = target: T1, Hordeum HPPD variant L320N (Hordeum vulgare, UniProt O48604, A164G/L320N/R146V/R147D/R148G); assay: HPPD activity assay, in vitro characterization of HPPD mutants; type: biochemical; conditions: normalized to wild-type
T1 construct: His (N); made in house; host or cells: E. coli BL21 (DE3)
T1 sequence (O48604 whole entry R146V/R147D/R148G/A164G/L320N): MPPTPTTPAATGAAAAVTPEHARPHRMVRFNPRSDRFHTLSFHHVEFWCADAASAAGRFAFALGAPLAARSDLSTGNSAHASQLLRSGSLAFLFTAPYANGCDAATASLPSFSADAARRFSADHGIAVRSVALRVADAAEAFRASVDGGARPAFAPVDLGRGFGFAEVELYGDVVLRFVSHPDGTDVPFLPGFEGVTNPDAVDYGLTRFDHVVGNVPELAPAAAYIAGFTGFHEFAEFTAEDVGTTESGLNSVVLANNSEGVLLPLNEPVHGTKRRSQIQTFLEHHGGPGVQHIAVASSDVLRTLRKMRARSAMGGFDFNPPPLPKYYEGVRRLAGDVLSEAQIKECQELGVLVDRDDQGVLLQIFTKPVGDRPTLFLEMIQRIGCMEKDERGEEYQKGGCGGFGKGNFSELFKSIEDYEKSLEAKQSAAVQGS
Experimental: as §1, §2, §3, §4, §5
(§7) Inhibitors are dissolved in DMSO (dimethylsulfoxide) to a concentration of 0.5 mM. From this stock solution serial five-fold dilutions are prepared in DMSO, which are used in the assay. The respective inhibitor solution accounts for 1% of the assay volume. […] Activities are normalized by setting the uninhibited enzyme activity to 100%. IC50 values are calculated using non-linear regression.
(§8) Purified, mutant HPPD enzymes are obtained by the methods described above. Dose response and kinetic measurements are carried out using the described HPPD activity assay. Apparent michaelis constants (Km) and maximal reaction velocities (Vmax) are calculated by non-linear regression with the software GraphPad Prism 5 (GraphPad Software, La Jolla, USA) using a substrate inhibition model. […] Weighted means (by standard error) of Km and IC50 values are calculated from at least three independent experiments.
(§9) Field performance of the optimized HPPD enzyme, which is used as a herbicide tolerance trait may depend not only on its lack of sensitivity towards HPPD inhibiting herbicides but also on its activity. To assess the potential performance of a herbicide tolerance trait a tolerance index (TI) is calculated using the following formula: […]

transgenic Soy plants = assay: Greenhouse testing of transgenic Soy plants (T2), herbicide spray test; type: in vivo, Glycine max
Experimental: Transgenic plants expressing heterologous HPPD or HST enzymes are tested for tolerance against HPPD-inhibiting herbicides in greenhouse experiments.
For post emergence treatment, the test plants are first grown to a height of 3 to 15 cm, depending on the plant habit, and only then treated with the herbicides. For this purpose, the test plants are either sown directly and grown in the same containers, or they are first grown separately and transplanted into the test containers a few days prior to treatment. For testing of T0 plants, cuttings can be used. In the case of soybean plants, an optimal shoot for cutting is about 7.5 to 10 cm tall, with at least two nodes present. Each cutting is taken from the original transformant (mother plant) and dipped into rooting hormone powder (indole-3-butyric acid, IBA). The cutting is then placed in oasis wedges inside a bio-dome. Wild type cuttings are also taken simultaneously to serve as controls. The cuttings are kept in the bio-dome for 5-7 days and then transplanted to pots and then acclimated in the growth chamber for two more days. Subsequently, the cuttings are transferred to the greenhouse, acclimated for approximately 4 days, and then subjected to spray tests as indicated.
Depending on the species, the plants are kept at 10-25° C. or 20-35° C. The test period ex-tends over 3 weeks. During this time, the plants are tended and their response to the individual treatments is evaluated. Herbicide injury evaluations are taken at 2 and 3 weeks after treatment. Plant injury is rated on a scale of 0 to 9, 0 being no injury and 9 being complete death.
As depicted in Table 20, control plants were severely injured by all doses of herbicide applied, with 79% of leaf material being damaged at the highest application rate. […] Application of 31,25 g/ha active ingredient resulted only in 10-13% of leaf damage in two independent transgenic plant lines. Thus, in direct comparison with wild-type plants (injury value is 49%), a 4-fold increased tolerance could be observed after spraying with 31,25 g/ha. […]

[2] = target: T2, Arabidopsis HPPD variant F381I (Arabidopsis thaliana, UniProt P93836, F381I); assay: HPPD activity assay, in vitro characterization of HPPD mutants; type: biochemical; conditions: normalized to wildtype
T2 construct: His6 (N); made in house; host or cells: E. coli BL21 (DE3)
T2 sequence (P93836 whole entry F381I): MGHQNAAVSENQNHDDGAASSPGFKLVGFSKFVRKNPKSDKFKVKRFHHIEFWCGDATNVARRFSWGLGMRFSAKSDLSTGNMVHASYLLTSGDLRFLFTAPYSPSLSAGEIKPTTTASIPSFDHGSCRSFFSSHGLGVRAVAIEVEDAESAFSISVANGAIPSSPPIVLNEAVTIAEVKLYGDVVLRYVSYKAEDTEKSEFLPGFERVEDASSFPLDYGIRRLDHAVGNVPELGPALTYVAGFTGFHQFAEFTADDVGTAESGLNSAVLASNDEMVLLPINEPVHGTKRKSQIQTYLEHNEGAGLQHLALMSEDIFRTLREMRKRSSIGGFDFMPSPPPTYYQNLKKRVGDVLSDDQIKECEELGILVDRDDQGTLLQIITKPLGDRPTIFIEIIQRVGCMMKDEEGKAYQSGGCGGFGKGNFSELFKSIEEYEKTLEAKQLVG
Experimental: as §1, §2, §3, §4, §5, §7, §8, §9

Structure (SMILES) | Normalized tolerance index (TI) (Picrophilus HPPD) | Normalized tolerance index (TI) (Avena HPPD) | Normalized tolerance index (TI) [1] | increased tolerance vs wild-type plants (transgenic Soy plants; Soy Arabidopsis HPPD (SEQ ID: 53), 31,25 g/ha) | leaf damage (transgenic Soy plants; Soy Arabidopsis HPPD, two independent transgenic plant lines, 31,25 g/ha) | tolerance compared to nontransgenic control plants (transgenic Soy plants; Soy expressing Glycine max HPPD) | Normalized tolerance index (TI) [2]
Cn1nnnc1NC(=O)c1c(F)cc(Cl)c(S(C)(=O)=O)c1Cl [Inhibitor 1, 2,4-dichloro-6-fluoro-3-methylsulfonyl-N-(1-methyltetrazol-5-yl)benzamide] | 2.1 | 2.8 | 5.2 | – | – | – | –
CSc1c(Cl)cc(F)c(C(=O)Nc2ncnn2C)c1Cl [Inhibitor 3, 2,4-dichloro-6-fluoro-3-methylsulfanyl-N-(2-methyl-1,2,4-triazol-3-yl)benzamide] | 0.7 | 2.8 | – | 4 fold | 10-13% | more tolerant | 0.1
